pEC50: −log10 of the molar value.
Columns and labels:
[1] = biological target: Human GPR35 (Homo sapiens, UniProt Q9HC97); assay: Beta-Arrestin Assay (Tango U2OS cells, LiveBLAzer-FRET B/G); type: cell-based; details: Human GPR35 expressing Tango U2OS cells, 5 hours treatment
Procedure: Human GPR35 expressing Tango U2OS cells were plated in 384-well format in clear bottom plates at a cell density of 10,000 cells/well and allowed to grow overnight. The next day, cells were treated with serially diluted test compounds for 5 hours. LiveBLAzer-FRET B/G (CCF4-AM) detection reagents were then added and cells were allowed to incubate for 2 hours before reading plates on a BioTek Cytation 5 plate reader. Zaprinast was used as a positive control for dose-response curves. In order to determine EC50 values, data were fit to a four-parameter dose-response curve.

[2] = biological target: Human GPR35 (Homo sapiens, UniProt Q9HC97, S294R); assay: Alternative Beta-Arrestin Assay (JumpIn 294R Tango U2OS cells, LiveBLAzer-FRET B/G); type: cell-based; details: Human GPR35 expressing JumpIn 294R Tango U2OS cells, 5 hours treatment
Sequence of Human GPR35 (Homo sapiens, UniProt Q9HC97, S294R) (Q9HC97 whole entry S294R): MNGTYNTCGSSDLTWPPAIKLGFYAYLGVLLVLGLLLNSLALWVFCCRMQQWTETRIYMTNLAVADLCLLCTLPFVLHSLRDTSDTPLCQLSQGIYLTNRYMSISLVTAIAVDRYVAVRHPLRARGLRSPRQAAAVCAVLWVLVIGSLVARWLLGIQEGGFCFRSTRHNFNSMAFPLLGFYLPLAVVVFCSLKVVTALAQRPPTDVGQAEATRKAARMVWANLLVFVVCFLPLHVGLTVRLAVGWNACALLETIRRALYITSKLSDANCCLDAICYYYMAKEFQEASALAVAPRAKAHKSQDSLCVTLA
Procedure, shortened: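 Beta-arrestin recruitment measured as FRET ratio change using CCF4-AM loading for 2 h, following 5-hour compound treatment of GPR35 (S294R) JumpIn Tango U2OS cells. Zaprinast served as positive control; EC50 values from four-parameter dose-response fits.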

Sequence of Human GPR35 (Homo sapiens, UniProt Q9HC97) (Q9HC97 whole entry): as the sequence (Q9HC97 whole entry S294R) above, with R294S counted along it

Row | SMILES | pEC50 [1] | pEC50 [2]
1 | CCOc1cc(-c2ccc(OCCN3CCCC3)c(/C=C(\C)C(=O)O)c2)ccc1-c1nc2[nH]nnc2c(=O)[nH]1 [Compound 299, (E)-3-(3′-ethoxy-4′-(7-oxo-6,7-dihydro-3H-[1,2,3]triazolo[4,5-d]pyrimidin-5-yl)-4-(2-(pyrrolidin-1-yl)ethoxy)-[1,1′-biphenyl]-3-yl)-2-methylacrylic acid] |  | ≥ 5.00
2 | CCOc1cc(-c2ccc(OCCN3CCCC3)c(CC(C)C(=O)O)c2)ccc1-c1nc2[nH]nnc2c(=O)[nH]1 (stereo not drawn) [Compound 300, 3-(3′-ethoxy-4′-(7-oxo-6,7-dihydro-3H-[1,2,3]triazolo[4,5-d]pyrimidin-5-yl)-4-(2-(pyrrolidin-1-yl)ethoxy)-[1,1′-biphenyl]-3-yl)-2-methylpropanoic acid] |  | ≥ 5.00
3 | CCOc1cc(-c2ccc(OC(C)C)c(/C=C(\C)C(=O)O)c2)ccc1-c1nc2[nH]nnc2c(=O)[nH]1 [Compound 301, (E)-3-(3′-ethoxy-4-isopropoxy-4′-(7-oxo-6,7-dihydro-3H-[1,2,3]triazolo[4,5-d]pyrimidin-5-yl)-[1,1′-biphenyl]-3-yl)-2-methylacrylic acid] |  | ≥ 5.00
4 | CCOc1cc(-c2ccc(OC(C)C)c(CC(C)C(=O)O)c2)ccc1-c1nc2[nH]nnc2c(=O)[nH]1 (stereo not drawn) [Compound 302, 3-(3′-ethoxy-4-isopropoxy-4′-(7-oxo-6,7-dihydro-3H-[1,2,3]triazolo[4,5-d]pyrimidin-5-yl)-[1,1′-biphenyl]-3-yl)-2-methylpropanoic acid] |  | ≥ 5.00
5 | CCOc1cc(-c2ccc3c(c2)CC(C)(C)C(=O)O3)ccc1-c1nc2[nH]nnc2c(=O)[nH]1 [Compound 305, 5-(4-(3,3-dimethyl-2-oxochroman-6-yl)-2-ethoxyphenyl)-3,6-dihydro-7H-[1,2,3]triazolo[4,5-d]pyrimidin-7-one] |  | ≥ 5.00
6 | CCOc1cc(-c2ccc(O)c(CCC(=O)O)c2)ccc1-c1nc2[nH]nnc2c(=O)[nH]1 [Compound 309, 3-(3′-ethoxy-4-hydroxy-4′-(7-oxo-6,7-dihydro-3H-[1,2,3]triazolo[4,5-d]pyrimidin-5-yl)-[1,1′-biphenyl]-3-yl)propanoic acid] |  | ≥ 5.00
7 | CCOc1cc(-c2cccc(CC(C)C(=O)OC)c2)ccc1-c1nc2[nH]nnc2c(=O)[nH]1 (stereo not drawn) [Compound 310, methyl 3-(3′-ethoxy-4′-(7-oxo-6,7-dihydro-3H-[1,2,3]triazolo[4,5-d]pyrimidin-5-yl)-[1,1′-biphenyl]-3-yl)-2-methylpropanoate] |  | ≥ 5.00
8 | CCOc1cc(-c2ccc(OC)c(/C=C(\C)C(=O)O)c2)ccc1-c1nc2[nH]nnc2c(=O)[nH]1 [Compound 315, (E)-3-(3′-ethoxy-4-methoxy-4′-(7-oxo-6,7-dihydro-3H-[1,2,3]triazolo[4,5-d]pyrimidin-5-yl)-[1,1′-biphenyl]-3-yl)-2-methylacrylic acid] |  | ≥ 5.00
9 | CCOc1cc(-c2ccc(OC)c(CC(C)C(=O)O)c2)ccc1-c1nc2[nH]nnc2c(=O)[nH]1 (stereo not drawn) [Compound 316, 3-(3′-ethoxy-4-methoxy-4′-(7-oxo-6,7-dihydro-3H-[1,2,3]triazolo[4,5-d]pyrimidin-5-yl)-[1,1′-biphenyl]-3-yl)-2-methylpropanoic acid] |  | ≥ 5.00
10 | CCOc1cc(-c2ccc(OCCN3CCCC3)c(/C=C/C(=O)O)c2)ccc1-c1nc2[nH]nnc2c(=O)[nH]1 [Compound 317, (E)-3-(3′-ethoxy-4′-(7-oxo-6,7-dihydro-3H-[1,2,3]triazolo[4,5-d]pyrimidin-5-yl)-4-(2-(pyrrolidin-1-yl)ethoxy)-[1,1′-biphenyl]-3-yl)acrylic acid] |  | ≥ 5.00
11 | CCOc1cc(-c2ccc(OCCN3CCCC3)c(CCC(=O)O)c2)ccc1-c1nc2[nH]nnc2c(=O)[nH]1 [Compound 318, 3-(3′-ethoxy-4′-(7-oxo-6,7-dihydro-3H-[1,2,3]triazolo[4,5-d]pyrimidin-5-yl)-4-(2-(pyrrolidin-1-yl)ethoxy)-[1,1′-biphenyl]-3-yl)propanoic acid] |  | ≥ 5.00
12 | CCOc1cc(-c2ccc(OCCN(C)C)c(/C=C/C(=O)O)c2)ccc1-c1nc2[nH]nnc2c(=O)[nH]1 [Compound 319, (E)-3-(4-(2-(dimethylamino)ethoxy)-3′-ethoxy-4′-(7-oxo-6,7-dihydro-3H-[1,2,3]triazolo[4,5-d]pyrimidin-5-yl)-[1,1′-biphenyl]-3-yl)acrylic acid] |  | ≥ 5.00
13 | CCOc1cc(-c2ccc(OCCN(C)C)c(CCC(=O)O)c2)ccc1-c1nc2[nH]nnc2c(=O)[nH]1 [Compound 320, 3-(4-(2-(dimethylamino)ethoxy)-3′-ethoxy-4′-(7-oxo-6,7-dihydro-3H-[1,2,3]triazolo[4,5-d]pyrimidin-5-yl)-[1,1′-biphenyl]-3-yl)propanoic acid] |  | ≥ 5.00
14 | CCOc1cc(-c2ccc(C)c(CCC(=O)O)c2)ccc1-c1nc2[nH]nnc2c(=O)[nH]1 [Compound 321, 3-(3′-ethoxy-4-methyl-4′-(7-oxo-6,7-dihydro-3H-[1,2,3]triazolo[4,5-d]pyrimidin-5-yl)-[1,1′-biphenyl]-3-yl)propanoic acid] |  | ≥ 5.00

Continued, values first:

Row | pEC50 [1] | pEC50 [2] | SMILES
15 | ≥ 5.00 | ≥ 5.00 | CCOc1cc(-c2ccccc2)ccc1-c1nc2[nH]nnc2c(=O)[nH]1 [Compound 101, 5-(3-Ethoxy-[1,1′-biphenyl]-4-yl)-3,6-dihydro-7H-[1,2,3]triazolo[4,5-d]pyrimidin-7-one]
16 | ≥ 5.00 | ≥ 5.00 | CCOc1cc(-c2cccnc2)ccc1-c1nc2[nH]nnc2c(=O)[nH]1 [Compound 102, 5-(2-Ethoxy-4-(pyridin-3-yl)phenyl)-3,6-dihydro-7H-[1,2,3]triazolo[4,5-d]pyrimidin-7-one]
17 | ≥ 5.00 | ≥ 5.00 | CCOc1cc(-c2ncccn2)ccc1-c1nc2[nH]nnc2c(=O)[nH]1 [Compound 103, 5-(2-Ethoxy-4-(pyrimidin-2-yl)phenyl)-3,6-dihydro-7H-[1,2,3]triazolo[4,5-d]pyrimidin-7-one]
18 | ≥ 5.00 | ≥ 5.00 | CCOc1cc(-c2ccncc2)ccc1-c1nc2[nH]nnc2c(=O)[nH]1 [Compound 104, 5-(2-Ethoxy-4-(pyridin-4-yl)phenyl)-3,6-dihydro-7H-[1,2,3]triazolo[4,5-d]pyrimidin-7-one]
19 | ≥ 5.00 | ≥ 5.00 | CCOc1cc(-c2ccccn2)ccc1-c1nc2[nH]nnc2c(=O)[nH]1 [Compound 105, 5-(2-Ethoxy-4-(pyridin-2-yl)phenyl)-3,6-dihydro-7H-[1,2,3]triazolo[4,5-d]pyrimidin-7-one]
20 |  | ≥ 5.00 | CCOC(=O)C(C)c1cccc(-c2ccc(-c3nc4[nH]nnc4c(=O)[nH]3)c(OCC)c2)c1 (stereo not drawn) [Compound 296, ethyl 2-(3′-ethoxy-4′-(7-oxo-6,7-dihydro-3H-[1,2,3]triazolo[4,5-d]pyrimidin-5-yl)-[1,1′-biphenyl]-3-yl)propanoate]
21 |  | ≥ 5.00 | CCOc1cc(-c2cccc(C(C)C(=O)O)c2)ccc1-c1nc2[nH]nnc2c(=O)[nH]1 (stereo not drawn) [Compound 297, 2-(3′-ethoxy-4′-(7-oxo-6,7-dihydro-3H-[1,2,3]triazolo[4,5-d]pyrimidin-5-yl)-[1,1′-biphenyl]-3-yl)propanoic acid]
22 |  | ≥ 5.00 | CCOc1cc(-c2cccc(C(C)(C)C(=O)O)c2)ccc1-c1nc2[nH]nnc2c(=O)[nH]1 [Compound 298, 2-(3′-ethoxy-4′-(7-oxo-6,7-dihydro-3H-[1,2,3]triazolo[4,5-d]pyrimidin-5-yl)-[1,1′-biphenyl]-3-yl)-2-methylpropanoic acid]
